Literature values, collected in patent publication US20010036664A1, “L-leucyl-L-leucine methyl ester treatment of donor lypmhocyte infusions in bone marrow transplant patients” (priority 2000, published 2001).

Experiments:
GVHD = settings: ex vivo treatment of bone marrow grafts; multiple murine models
GVHD-inducing T cells = settings: stem cell toxicity occurs at this concentration

For `COC(=O)[C@H](CC(C)C)NC(=O)[C@@H](N)CC(C)C` [LLME, L-leucyl-L-leucine methyl ester], the “prevention of GVHD” value (GVHD) is given as “completely prevent GVHD” and the “concentrations necessary to purge GVHD-inducing T cells” value (GVHD-inducing T cells) is given as 500 µM.
